Experiments:
Experiment in all cases: KINOMEscan kinase binding assay (Eurofins/DiscoveRx), % Ctrl
kinases [1] = molecular target: T1, kinases (Homo sapiens, UniProt P00533, DEL752-759); details: 1 μM; EGFR(S752-I759del)
T1 construct: purchased Eurofins/DiscoveRx; host or cells: E. coli BL21-derived host (T7 phage display) for most kinases; HEK-293 for the rest
Outline: (§1)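 Competition binding, 1 h RT: phage-tagged or HEK-293-expressed DNA-tagged kinase + immobilized ligand + compound. Eluate kinase by qPCR. % Ctrl = (test − positive ctrl)/(negative ctrl − positive ctrl) × 100; lower means stronger binding.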

kinases [2] = molecular target: T2, kinases (Homo sapiens, UniProt P00519, E255K); details: 1 μM; ABL1(E255K)-phosphorylated
T2 construct: purchased Eurofins/DiscoveRx; host or cells: E. coli BL21-derived host (T7 phage display) for most kinases; HEK-293 for the rest
Outline: as §1

kinases [3] = molecular target: T3, kinases (Homo sapiens, UniProt P00519, T315I); details: 1 μM
T3 construct: purchased Eurofins/DiscoveRx; host or cells: E. coli BL21-derived host (T7 phage display) for most kinases; HEK-293 for the rest
Outline: as §1

kinases [4] = molecular target: T4, kinases (Homo sapiens, UniProt P07949); details: 1 μM; RET
T4 construct: purchased Eurofins/DiscoveRx; host or cells: E. coli BL21-derived host (T7 phage display) for most kinases; HEK-293 for the rest
Outline: as §1

kinases [5] = molecular target: T5, kinases (Homo sapiens, UniProt P10721, D816H); details: 1 μM; KIT(D816H)
T5 construct: purchased Eurofins/DiscoveRx; host or cells: E. coli BL21-derived host (T7 phage display) for most kinases; HEK-293 for the rest
Outline: as §1

kinases [6] = molecular target: T6, kinases (Homo sapiens, UniProt P00519, F317I); details: 1 μM
T6 construct: purchased Eurofins/DiscoveRx; host or cells: E. coli BL21-derived host (T7 phage display) for most kinases; HEK-293 for the rest
Outline: as §1

kinases [7] = molecular target: T7, kinases (Homo sapiens, UniProt P10721, L576P); details: 1 μM; KIT(L576P)
T7 construct: purchased Eurofins/DiscoveRx; host or cells: E. coli BL21-derived host (T7 phage display) for most kinases; HEK-293 for the rest
Outline: as §1

kinases [8] = molecular target: T8, kinases (Homo sapiens, UniProt P07949, M918T); details: 1 μM; RET(M918T)
T8 construct: purchased Eurofins/DiscoveRx; host or cells: E. coli BL21-derived host (T7 phage display) for most kinases; HEK-293 for the rest
Outline: as §1

kinases [9] = molecular target: T9, kinases (Homo sapiens, UniProt P09619); details: 1 μM; PDGFRB
T9 construct: purchased Eurofins/DiscoveRx; host or cells: E. coli BL21-derived host (T7 phage display) for most kinases; HEK-293 for the rest
Outline: as §1

kinases [10] = molecular target: T10, kinases (Homo sapiens, UniProt P16234); details: 1 μM; PDGFRA
T10 construct: purchased Eurofins/DiscoveRx; host or cells: E. coli BL21-derived host (T7 phage display) for most kinases; HEK-293 for the rest
Outline: as §1

kinases [11] = molecular target: T11, kinases (Homo sapiens, UniProt P00533, L858R); details: 1 μM; EGFR(L858R)
T11 construct: purchased Eurofins/DiscoveRx; host or cells: E. coli BL21-derived host (T7 phage display) for most kinases; HEK-293 for the rest
Outline: as §1

kinases [12] = molecular target: T12, kinases (Homo sapiens, UniProt P00519, H396P); details: 1 μM
T12 construct: purchased Eurofins/DiscoveRx; host or cells: E. coli BL21-derived host (T7 phage display) for most kinases; HEK-293 for the rest
Outline: as §1

kinases [13] = molecular target: T13, kinases (Homo sapiens, UniProt P36888, D835Y); details: 1 μM; FLT3(D835Y)
T13 construct: purchased Eurofins/DiscoveRx; host or cells: E. coli BL21-derived host (T7 phage display) for most kinases; HEK-293 for the rest
T13 sequence (P36888 27-993 D835Y): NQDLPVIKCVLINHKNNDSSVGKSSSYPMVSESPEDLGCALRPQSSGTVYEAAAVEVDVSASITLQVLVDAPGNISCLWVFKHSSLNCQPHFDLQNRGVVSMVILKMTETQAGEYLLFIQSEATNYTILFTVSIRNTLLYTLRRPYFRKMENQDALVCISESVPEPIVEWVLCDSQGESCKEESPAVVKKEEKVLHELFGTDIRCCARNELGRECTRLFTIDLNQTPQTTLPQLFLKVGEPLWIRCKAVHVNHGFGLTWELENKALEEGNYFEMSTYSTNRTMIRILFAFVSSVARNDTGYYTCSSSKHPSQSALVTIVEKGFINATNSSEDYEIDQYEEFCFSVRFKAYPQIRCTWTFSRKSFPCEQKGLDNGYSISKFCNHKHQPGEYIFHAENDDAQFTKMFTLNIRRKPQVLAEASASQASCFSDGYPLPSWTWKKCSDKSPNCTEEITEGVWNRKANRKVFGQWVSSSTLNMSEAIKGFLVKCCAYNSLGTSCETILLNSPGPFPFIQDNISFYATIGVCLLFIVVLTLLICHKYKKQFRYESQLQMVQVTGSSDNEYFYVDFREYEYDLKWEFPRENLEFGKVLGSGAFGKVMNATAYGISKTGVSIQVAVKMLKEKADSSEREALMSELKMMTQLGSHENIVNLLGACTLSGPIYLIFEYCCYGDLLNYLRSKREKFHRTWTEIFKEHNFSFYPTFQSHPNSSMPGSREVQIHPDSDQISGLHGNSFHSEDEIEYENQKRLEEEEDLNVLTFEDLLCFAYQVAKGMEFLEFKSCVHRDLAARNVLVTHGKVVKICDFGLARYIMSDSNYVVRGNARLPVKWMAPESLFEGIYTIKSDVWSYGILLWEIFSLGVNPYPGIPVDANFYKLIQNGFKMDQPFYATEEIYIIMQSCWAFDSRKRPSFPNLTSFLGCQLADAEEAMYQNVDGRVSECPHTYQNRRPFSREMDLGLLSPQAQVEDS
Outline: as §1

kinases [14] = molecular target: T14, kinases (Homo sapiens, UniProt P00533, G719S); details: 1 μM; EGFR(G719S)
T14 construct: purchased Eurofins/DiscoveRx; host or cells: E. coli BL21-derived host (T7 phage display) for most kinases; HEK-293 for the rest
Outline: as §1

kinases [15] = molecular target: T15, kinases (Homo sapiens, UniProt P10721, V559D); details: 1 μM; KIT(V559D)
T15 construct: purchased Eurofins/DiscoveRx; host or cells: E. coli BL21-derived host (T7 phage display) for most kinases; HEK-293 for the rest
Outline: as §1

T5 sequence (P10721 26-976 D816H): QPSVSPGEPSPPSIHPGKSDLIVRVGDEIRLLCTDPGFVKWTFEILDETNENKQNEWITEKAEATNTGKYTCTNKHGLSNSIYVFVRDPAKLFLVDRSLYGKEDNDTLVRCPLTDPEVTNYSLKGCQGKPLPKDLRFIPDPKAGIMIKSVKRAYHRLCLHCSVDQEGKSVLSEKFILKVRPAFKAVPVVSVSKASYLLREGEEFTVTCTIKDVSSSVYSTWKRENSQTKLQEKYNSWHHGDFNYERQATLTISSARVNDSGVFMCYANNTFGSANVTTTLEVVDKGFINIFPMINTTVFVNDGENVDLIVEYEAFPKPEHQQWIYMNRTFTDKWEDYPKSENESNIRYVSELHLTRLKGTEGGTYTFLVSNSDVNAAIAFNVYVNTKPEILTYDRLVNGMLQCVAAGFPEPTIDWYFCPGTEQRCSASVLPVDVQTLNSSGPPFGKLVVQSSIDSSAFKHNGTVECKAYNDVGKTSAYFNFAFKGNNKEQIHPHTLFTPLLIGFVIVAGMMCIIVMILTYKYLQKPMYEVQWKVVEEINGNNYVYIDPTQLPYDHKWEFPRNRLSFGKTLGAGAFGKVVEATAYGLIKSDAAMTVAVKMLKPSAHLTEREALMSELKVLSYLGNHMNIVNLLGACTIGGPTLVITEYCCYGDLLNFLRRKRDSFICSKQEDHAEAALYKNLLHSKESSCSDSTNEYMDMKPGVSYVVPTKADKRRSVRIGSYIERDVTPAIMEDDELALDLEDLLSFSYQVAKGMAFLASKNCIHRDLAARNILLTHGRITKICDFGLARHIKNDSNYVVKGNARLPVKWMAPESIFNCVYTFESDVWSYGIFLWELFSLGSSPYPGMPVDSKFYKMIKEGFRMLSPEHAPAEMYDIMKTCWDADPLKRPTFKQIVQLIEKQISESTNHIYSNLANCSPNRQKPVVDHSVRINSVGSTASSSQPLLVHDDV
T4 sequence (P07949 29-1114): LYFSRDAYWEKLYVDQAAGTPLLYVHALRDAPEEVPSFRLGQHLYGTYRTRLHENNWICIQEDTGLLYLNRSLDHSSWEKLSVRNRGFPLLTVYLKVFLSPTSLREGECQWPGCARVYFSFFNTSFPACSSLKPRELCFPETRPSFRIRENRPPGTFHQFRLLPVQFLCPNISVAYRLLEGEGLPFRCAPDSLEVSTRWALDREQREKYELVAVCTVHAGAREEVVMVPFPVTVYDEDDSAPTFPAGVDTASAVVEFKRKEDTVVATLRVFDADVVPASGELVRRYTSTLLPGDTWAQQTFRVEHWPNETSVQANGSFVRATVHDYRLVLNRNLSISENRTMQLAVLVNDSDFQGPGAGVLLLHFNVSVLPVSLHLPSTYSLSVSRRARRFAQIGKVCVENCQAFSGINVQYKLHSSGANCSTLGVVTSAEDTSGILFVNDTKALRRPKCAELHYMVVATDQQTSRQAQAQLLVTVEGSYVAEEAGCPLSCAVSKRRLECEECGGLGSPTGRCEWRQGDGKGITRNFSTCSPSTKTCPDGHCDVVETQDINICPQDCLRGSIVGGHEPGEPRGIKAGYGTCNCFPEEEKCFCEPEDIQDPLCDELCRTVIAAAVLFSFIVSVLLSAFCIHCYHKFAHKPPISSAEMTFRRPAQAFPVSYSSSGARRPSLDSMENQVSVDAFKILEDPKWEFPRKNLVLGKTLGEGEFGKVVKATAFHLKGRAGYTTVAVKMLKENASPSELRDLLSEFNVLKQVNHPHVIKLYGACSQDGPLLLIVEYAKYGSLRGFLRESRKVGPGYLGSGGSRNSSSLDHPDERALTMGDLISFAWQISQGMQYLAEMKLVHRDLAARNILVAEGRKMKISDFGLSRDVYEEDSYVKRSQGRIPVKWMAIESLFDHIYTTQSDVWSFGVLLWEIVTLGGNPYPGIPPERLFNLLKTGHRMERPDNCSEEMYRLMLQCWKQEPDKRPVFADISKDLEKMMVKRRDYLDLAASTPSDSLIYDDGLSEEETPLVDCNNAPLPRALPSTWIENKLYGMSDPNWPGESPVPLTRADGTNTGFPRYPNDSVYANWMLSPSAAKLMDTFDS
T7 sequence (P10721 26-976 L576P): as the sequence (P10721 26-976 D816H) above, with L551P, H791D counted along it
T15 sequence (P10721 26-976 V559D): as the sequence (P10721 26-976 D816H) above, with V534D, H791D counted along it
T9 sequence (P09619 33-1106): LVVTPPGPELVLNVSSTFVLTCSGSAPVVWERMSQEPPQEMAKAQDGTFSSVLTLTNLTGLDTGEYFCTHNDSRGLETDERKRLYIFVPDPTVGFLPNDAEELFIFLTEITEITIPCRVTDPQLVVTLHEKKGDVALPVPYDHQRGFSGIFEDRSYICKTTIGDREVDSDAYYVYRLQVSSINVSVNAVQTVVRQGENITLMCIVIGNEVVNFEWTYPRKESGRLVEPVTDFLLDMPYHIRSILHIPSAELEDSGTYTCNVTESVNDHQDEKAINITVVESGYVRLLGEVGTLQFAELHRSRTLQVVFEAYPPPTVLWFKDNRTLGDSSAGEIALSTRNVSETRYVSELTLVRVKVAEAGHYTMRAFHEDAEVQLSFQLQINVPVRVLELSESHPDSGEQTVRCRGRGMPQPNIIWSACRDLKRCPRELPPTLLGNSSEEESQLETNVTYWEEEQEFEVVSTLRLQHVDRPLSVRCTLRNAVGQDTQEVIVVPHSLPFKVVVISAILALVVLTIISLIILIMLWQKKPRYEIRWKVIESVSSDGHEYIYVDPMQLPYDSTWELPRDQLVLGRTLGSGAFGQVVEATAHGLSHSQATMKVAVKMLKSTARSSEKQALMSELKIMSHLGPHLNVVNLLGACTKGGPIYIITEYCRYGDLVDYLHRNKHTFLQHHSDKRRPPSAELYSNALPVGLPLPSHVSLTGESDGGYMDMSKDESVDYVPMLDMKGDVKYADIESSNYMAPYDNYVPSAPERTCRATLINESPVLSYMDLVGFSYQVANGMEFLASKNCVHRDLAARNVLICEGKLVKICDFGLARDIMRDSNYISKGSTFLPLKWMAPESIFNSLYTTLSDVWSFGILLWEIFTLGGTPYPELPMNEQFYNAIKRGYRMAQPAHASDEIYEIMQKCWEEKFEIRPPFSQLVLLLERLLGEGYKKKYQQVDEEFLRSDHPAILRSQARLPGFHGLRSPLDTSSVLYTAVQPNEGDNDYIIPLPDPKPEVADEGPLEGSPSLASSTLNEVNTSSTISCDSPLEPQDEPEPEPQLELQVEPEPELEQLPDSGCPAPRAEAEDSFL
T8 sequence (P07949 29-1114 M918T): as the sequence (P07949 29-1114) above, with M890T counted along it
T10 sequence (P16234 24-1089): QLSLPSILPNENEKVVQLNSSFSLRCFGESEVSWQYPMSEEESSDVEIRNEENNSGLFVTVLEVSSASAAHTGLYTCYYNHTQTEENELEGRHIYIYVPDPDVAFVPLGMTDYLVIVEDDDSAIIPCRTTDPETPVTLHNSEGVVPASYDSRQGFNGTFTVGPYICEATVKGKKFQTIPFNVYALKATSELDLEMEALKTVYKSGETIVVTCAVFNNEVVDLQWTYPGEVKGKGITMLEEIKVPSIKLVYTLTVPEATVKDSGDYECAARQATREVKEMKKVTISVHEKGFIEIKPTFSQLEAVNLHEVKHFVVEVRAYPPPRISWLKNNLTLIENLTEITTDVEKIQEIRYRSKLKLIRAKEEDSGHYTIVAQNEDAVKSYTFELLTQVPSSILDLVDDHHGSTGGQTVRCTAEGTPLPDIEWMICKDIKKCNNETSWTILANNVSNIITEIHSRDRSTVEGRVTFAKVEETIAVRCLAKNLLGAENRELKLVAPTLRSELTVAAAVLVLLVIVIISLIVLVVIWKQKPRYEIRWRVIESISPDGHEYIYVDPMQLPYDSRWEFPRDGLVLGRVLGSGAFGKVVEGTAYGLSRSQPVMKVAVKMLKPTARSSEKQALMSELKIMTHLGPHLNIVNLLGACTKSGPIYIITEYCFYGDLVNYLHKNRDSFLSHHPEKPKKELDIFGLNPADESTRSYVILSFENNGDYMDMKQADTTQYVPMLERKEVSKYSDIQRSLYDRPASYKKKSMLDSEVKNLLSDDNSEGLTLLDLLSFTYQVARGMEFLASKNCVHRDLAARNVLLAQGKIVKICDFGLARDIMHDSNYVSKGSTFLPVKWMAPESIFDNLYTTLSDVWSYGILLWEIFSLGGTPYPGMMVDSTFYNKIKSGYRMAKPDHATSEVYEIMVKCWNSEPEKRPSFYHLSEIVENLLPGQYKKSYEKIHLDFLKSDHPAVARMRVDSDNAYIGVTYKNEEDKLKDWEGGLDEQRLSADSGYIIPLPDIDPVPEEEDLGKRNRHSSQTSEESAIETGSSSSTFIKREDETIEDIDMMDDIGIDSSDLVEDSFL

Structure (SMILES)	% Ctrl, EGFR(S752-I759del) (kinases [1]) [% Ctrl]	% Ctrl, ABL1(E255K)-phosphorylated (kinases [2]) [% Ctrl]	% Ctrl, ABL1(T315I)-nonphosphorylated (kinases [3]) [% Ctrl]	% Ctrl, ABL1(T315I)-phosphorylated (kinases [3]) [% Ctrl]	% Ctrl, RET (kinases [4]) [% Ctrl]	% Ctrl, KIT(D816H) (kinases [5]) [% Ctrl]	% Ctrl, ABL1(F317I)-nonphosphorylated (kinases [6]) [% Ctrl]	% Ctrl, ABL1(F317I)-phosphorylated (kinases [6]) [% Ctrl]	% Ctrl, KIT(L576P) (kinases [7]) [% Ctrl]	% Ctrl, RET(M918T) (kinases [8]) [% Ctrl]	% Ctrl, PDGFRB (kinases [9]) [% Ctrl]	% Ctrl, PDGFRA (kinases [10]) [% Ctrl]	% Ctrl, EGFR(L858R) (kinases [11]) [% Ctrl]	% Ctrl, ABL1(H396P)-nonphosphorylated (kinases [12]) [% Ctrl]	% Ctrl, ABL1(H396P)-phosphorylated (kinases [12]) [% Ctrl]	% Ctrl, FLT3(D835Y) (kinases [13]) [% Ctrl]	% Ctrl, EGFR(G719S) (kinases [14]) [% Ctrl]	% Ctrl, KIT(V559D) (kinases [15]) [% Ctrl]
Cc1cc2c([nH]1)/C=C1\C(=O)Nc3ccc(cc31)-c1cnn(C)c1CN(C)CCN(C)C2=O [Ex. 126, [3a(4)Z]-6,9,12,14-tetramethyl-9,10,11,12,13,14-hexahydro-1,17-(ethanediylidene)pyrazolo[4,3-m]dipyrrolo[3,2-f:3′,4′-i][1,4]diazacyclopentadecine-3,8(2H,5H)-dione]	32	0.55	0	0	0	0	0	0.3	0	0	0	1.2	31	0	0.1	1.4	57	1.4
Cc1cc2c([nH]1)/C=C1\C(=O)Nc3ccc(cc31)-c1c(C)n[nH]c1CNCCN(C)C2=O [Ex. 127, [3a(4)Z]-6,9,16-trimethyl-9,10,11,12,13,14-hexahydro-1,17-(ethanediylidene)pyrazolo[4,3-m]dipyrrolo[3,2-f:3′,4′-i][1,4]diazacyclopentadecine-3,8(2H,5H)-dione]	57	0.1	0	0.65	2	60	2.6	5.5	73	2.1	28	47	47	0	0	1.4	72	82
